# Test results from patent US9474740B2, “Ectoparasite control agent” (Nippon Soda Co., Ltd., priority 2013, dated 2016).
# Key:
# [1] = test system: American dog mites (Dermacentor variabilis) in nymph stage; assay: Acaricidal test of rodent (RAT) in vivo; conditions: Sprague-Dawley rat, topical 0.05 ml in acetone, effective component concentration of 1% or less (10 mg/ml), 48 hours after the treatment, read-out: efficacy (reduction % in the number of surviving mites)
# From the text: Evaluation of the test compounds can be performed by a method obtained by modifying the analysis method described in “J. Med. Entomol. 43 (3) 526-532 (2006)”. In the analysis method, other mite species (in references, described as a mite of Amblyomma americanum) can be also used, and, for example, other mite species such as a mite of Dermacentor variabilis can be also used. A mite-holding unit (which was configured of small size nipples, a crew cap with a vent, and a reinforcing rubber washer) was attached to the back of an adult Sprague-Dawley rat. After attaching the holding unit, 0.05 ml of a test compound dissolved in acetone was applied topically on the skin surface inside the holding unit. After leaving to stand for a sufficient period of time to evaporate the acetone, about 10 American dog mites (Dermacentor variabilis) in nymph stage, to which food was not given, were put into each holding unit. Three to five rats per treatment group were used. 48 hours after the treatment, the holding unit was removed, and the surviving mites and dead mites were counted. In the evaluation of efficacy, geometric mean calculation was used. First, the total number of surviving mites was converted by the natural logarithm transformation by adding 1 (Ln total number+1). That is, by adding 1 to each total number, the total number which was zero was adjusted. The geometric mean (GM) of the total number of mites in a treatment group was obtained by inverse-transforming the mean transformation value of the total number of treatment groups and subtracting 1. The non-treated control group was used for comparison with the groups in which the test compound was given for calculation of efficacy % (reduction % in the number of surviving mites). […] Efficacy [%]=[(survival mites GM number of control−survival mites GM number of treatment groups)/(survival mites GM number of control)×100
# Rhipicephalus sanguineus = assay: Parasite extermination test of dog in vivo, R. sanguineus
# Protocol: Each type of the test compounds was applied to four dogs. One day before treatment (−1 day) of the test compound, about 50 adults of Rhipicephalus sanguineus to which food was not given, per dog, were parasitized. It was estimated that 50% of the 50 ticks were male and 50% of the 50 ticks were female. Separately, the tested compound was dissolved in a mixed solvent consisting of 80% by volume of benzyl alcohol and 20% by volume of isopropyl myristate such that the concentration became 50 mg/ml, whereby a test solution was prepared. On zeroth day, several different spots of the interscapular region were treated with the test solution by “topical spot-on” such that the test compound was treated per 20 mg/kg per body weight of a dog. For comparison, a negative control was also prepared. In order to evaluate the treatment against the parasitized ticks, survival of the ticks were observed on the 2nd day (48 hours after the treatment). To evaluate the durability, on the 5th, 12th, 19th, and 28th day, 50 ticks to which food was not given, per dog, were parasitized again. On the 7th, 14th, 21 st, 30th and 35th day, 48 hours after each was parasitized, survival of the ticks and mites were observed, and the ticks and mites were removed from the dogs. The ticks were classified according to whether or not the ticks were attached, and the survival state was determined. In the evaluation of efficacy, the same geometric mean calculation as that in Test Example 2 was used. […] In addition, for Test Compound 1 to 32, the test compounds were treated per 5 mg/kg per body weight of an individual with respect to a dog.
# [2] = test system: American dog mites (Dermacentor variabilis); assay: Parasite extermination test of dog in vivo, D. variabilis; conditions: topical spot-on 20 mg/kg, 35th day
# Protocol: Each type of the test compounds was applied to four dogs. One day before treatment (−1 day) of the test compound, about 50 adults of Rhipicephalus sanguineus to which food was not given, per dog, were parasitized. It was estimated that 50% of the 50 ticks were male and 50% of the 50 ticks were female. Separately, the tested compound was dissolved in a mixed solvent consisting of 80% by volume of benzyl alcohol and 20% by volume of isopropyl myristate such that the concentration became 50 mg/ml, whereby a test solution was prepared. On zeroth day, several different spots of the interscapular region were treated with the test solution by “topical spot-on” such that the test compound was treated per 20 mg/kg per body weight of a dog. For comparison, a negative control was also prepared. Furthermore, on the 33rd day, 50 adult American dog mites (Dermacentor variabilis) to which food was not given were parasitized. On the 7th, 14th, 21 st, 30th and 35th day, 48 hours after each was parasitized, survival of the ticks and mites were observed, and the ticks and mites were removed from the dogs. The ticks were classified according to whether or not the ticks were attached, and the survival state was determined. In the evaluation of efficacy, the same geometric mean calculation as that in Test Example 2 was used. As the test compounds, 1-3, 1-5, 1-10, 1-28, 1-29, and 1-71 were used. Here, the test using American dog mites was performed on 1-28 and 1-71.
# [3] = test system: fleas (Ctenocephalides felis); assay: Parasite extermination test of dog in vivo, C. felis; conditions: topical spot-on 20 mg/kg
# Protocol: Each type of the test compounds was applied to four dogs. One day before treatment (−1 day) of the test compound, about 50 adults of Rhipicephalus sanguineus to which food was not given, per dog, were parasitized. It was estimated that 50% of the 50 ticks were male and 50% of the 50 ticks were female.
# Separately, the tested compound was dissolved in a mixed solvent consisting of 80% by volume of benzyl alcohol and 20% by volume of isopropyl myristate such that the concentration became 50 mg/ml, whereby a test solution was prepared.
# On zeroth day, several different spots of the interscapular region were treated with the test solution by “topical spot-on” such that the test compound was treated per 20 mg/kg per body weight of a dog. For comparison, a negative control was also prepared.
# In addition, on the 12th and 28th day, 50 adult fleas (Ctenocephalides felis) to which food was not given were parasitized together.
# On the 7th, 14th, 21 st, 30th and 35th day, 48 hours after each was parasitized, survival of the ticks and mites were observed, and the ticks and mites were removed from the dogs. The ticks were classified according to whether or not the ticks were attached, and the survival state was determined.
# In the evaluation of efficacy, the same geometric mean calculation as that in Test Example 2 was used.
# [4] = topical spot-on 20 mg/kg, 2nd day
# [5] = topical spot-on 20 mg/kg, 7th day
# [6] = topical spot-on 20 mg/kg, 14th day
# [7] = topical spot-on 20 mg/kg, 21st day
# [8] = topical spot-on 20 mg/kg, 30th day
# [9] = 5 mg/kg per body weight, 2nd day
# [10] = 5 mg/kg per body weight, 5th day
SMILES,pest or weed control at up to 10000 µg/mL [1] [%],average number of surviving parasites (Rhipicephalus sanguineus; [4]),efficacy (%) (Rhipicephalus sanguineus; [4]),average number of surviving parasites (Rhipicephalus sanguineus; [5]),efficacy (%) (Rhipicephalus sanguineus; [5]),average number of surviving parasites (Rhipicephalus sanguineus; [6]),efficacy (%) (Rhipicephalus sanguineus; [6]),average number of surviving parasites (Rhipicephalus sanguineus; [7]),efficacy (%) (Rhipicephalus sanguineus; [7]),average number of surviving parasites (Rhipicephalus sanguineus; [8]),efficacy (%) (Rhipicephalus sanguineus; [8]),average number of surviving parasites ([3]; 14th day),efficacy (%) ([3]; 14th day),average number of surviving parasites ([3]; 30th day),efficacy (%) ([3]; 30th day),other results
C=C1SC(=N\c2ccc(C)cc2)/C(=C/Sc2ccccc2)C(C)C1(C)C (stereo not shown) [Compound 1-28],≥ 50,0.25,99.3,0,100,0,100,0,100,1.8,97.8,0,100,0,100,average number of surviving parasites [2]: 7.0; efficacy (%) [2]: 88.3%
C=C1SC(=N\c2ccc(C)cc2)/C(=C/Sc2cccs2)C(C)C1(C)C (stereo not shown) [Compound 1-29],≥ 50,1.3,97.3,0,100,0,100,0,100,0,100,0,100,0,100,–
C=C1SC(=N\c2ccc(C)cc2)/C(=C/Sc2cccs2)CC1(C)C [Compound 1-10],≥ 50,0.5,98.9,0,100,0,100,0.5,99.5,4.3,95.4,0,100,0,100,–
Cc1ccc(/N=C2\SC(C)(C)CC\C2=C/Sc2ccccc2F)cc1 [Compound 1-32],≥ 50,–,–,–,–,–,–,–,–,–,–,–,–,–,–,average number of surviving parasites (Rhipicephalus sanguineus; [9]): 0; efficacy (%) (Rhipicephalus sanguineus; [9]): (76.6%); average number of surviving parasites (Rhipicephalus sanguineus; [10]): 0; efficacy (%) (Rhipicephalus sanguineus; [10]): (100%)
C=C1SC(=N\c2ccc(C)cc2)/C(=C/Sc2ccccc2)CC1(C)C [Compound 1-3],≥ 50,0.5,98.6,0,100,0,100,0,100,6.0,92.3,0,100,0,100,–
C=C1SC(=N\c2ccc(C)cc2)/C(=C/Sc2ccccc2)CC12CCCCC2 [Compound 1-5],≥ 50,0,100,0,100,0,100,1.8,95.4,6.5,86.8,0,100,8.8,98.2,–
Cc1ccc(/N=C2\SC(C)(C)CC\C2=C/Sc2cccc(C)c2)cc1 [Compound 1-31],≥ 50,–,–,–,–,–,–,–,–,–,–,–,–,–,–,–
CC(C)=C1CC(C)C(=C\SCc2ccc(Cl)cc2)/C(=N/c2ccc(C)cc2)S1 (stereo not shown) [Compound 1-71],≥ 50,5.0,90,0,100,0,100,1.8,96.9,0,86.8,0,100,0,100,average number of surviving parasites [2]: 9.8; efficacy (%) [2]: 80.3%
